In assay [1] the target is T1, Axl kinase domain recombinant protein (Homo sapiens, UniProt P30530).
T1 sequence (P30530 536-807 limits assumed): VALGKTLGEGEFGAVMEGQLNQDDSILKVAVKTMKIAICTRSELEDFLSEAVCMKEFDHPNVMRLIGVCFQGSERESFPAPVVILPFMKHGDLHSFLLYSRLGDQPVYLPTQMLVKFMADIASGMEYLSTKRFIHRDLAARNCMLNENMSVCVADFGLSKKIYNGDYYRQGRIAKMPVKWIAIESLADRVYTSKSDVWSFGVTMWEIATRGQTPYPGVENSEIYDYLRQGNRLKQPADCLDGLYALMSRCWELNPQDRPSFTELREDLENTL
The assay can be described thus: ELISA kinase activity assay, Axl. A general note: In an ELISA, binding on a coated surface is turned into a signal by an enzyme label.

Assay [2] concerns the target c-Met kinase domain recombinant protein (Homo sapiens, UniProt P08581). The assay can be described thus: ELISA kinase activity assay, c-Met.
Assay [3] has as its system MKN45 cells. Nature of the assay: MKN45 cell proliferation assay (SRB). Type of assay: cell-based. The following applies: Homo sapiens, MKN-45, 72 hours, read-out: IC50 value of MKN45 cell proliferation inhibition. From the text:
2. MKN45 Cell Proliferation Effect Assay
MKN45 is a gastric cancer cell line. MET gene amplification leads to continuous activation of Met cell line, which is a c-Met-dependent tumor cell line.
The inhibitory effect of the compound on the proliferation of MKN45 cells was detected by sulforhodamine B (SRB) protein staining method. The specific steps were as follows: MKN45 cells in the logarithmic growth phase are inoculated into a 96-well culture plate at an appropriate density. After being cultured overnight, compounds of different concentrations were added for 72 hours. Three duplicate wells for each concentration, and a solvent control group (Negative control) were set. After the action was over, the culture solution was discarded, 10% (w/v) trichloroacetic acid (100 μL/well) was added, and fixed at 4° C. for 1 hour, then washed with distilled water for five times. After drying at room temperature, 100 μL of SRB solution was added to each well, incubated and dyed at room temperature for 15 min, washed off the unbound SRB with 1% glacial acetic acid. After drying at room temperature, 10 mM Tris solution was added to each well, and full wavelength microplate SpectraMax 190 was used to test OD value at the wavelength of 515 nm. […]

Assay [4] has as its system BaF3-TEL-AXL cells. Nature of the assay: BaF3-TEL-AXL cell proliferation assay (CCK-8). Type of assay: cell-based. The conditions noted are these: 72 hours, read-out: IC50 value on BaF3-TEL-AXL cell proliferation inhibition. The text has this:
1. BaF3-TEL-AXL Cell Proliferation Effect Assay
TEL-AXL fusion protein in BaF3-TEL-AXL cells was expressed in the cytoplasm and was an Axl-dependent sensitive cell line.
The inhibitory effect of the compound on the proliferation of BaF3-TEL-AXL cells was detected by the CCK-8 Cell Counting Kit (Dojindo). The specific steps were as follows: the BaF3-TEL-AXL cells in the logarithmic growth phase were inoculated into the 96-well culture plate at a appropriate density, after being cultured overnight, different concentrations of compounds were added for 72 hours, and a solvent control group (negative control) was set. After the compound had acted on the cells for 72 hours, the effect of the compound on cell proliferation was detected by CCK-8 cell counting kit (Dojindo), 10 μL CCK-8 reagent was added to each well, placed in an incubator at 37° C. for 2-4 hours, and the full wavelength microplate reader SpectraMax 190 was used to read, and the measurement wavelength was 450 nm.
The inhibition rate of the compound on the growth of tumor cells was calculated by the following formula (%): Inhibition rate (%)=(OD of control well−OD of administration well)/OD of control well×100%

6 compounds from US12479850B2, “Compound having Axl and c-Met kinase inhibitory activity, preparation thereof and application thereof” (Shanghai Institute of Materia Medica, Chinese Academy of …, priority 2019, dated 2025) can be followed below.

Structures are written as SMILES. pIC50: −log10 of the molar value.

Chain of c-Met kinase domain recombinant protein (P08581 1078-1345 limits assumed): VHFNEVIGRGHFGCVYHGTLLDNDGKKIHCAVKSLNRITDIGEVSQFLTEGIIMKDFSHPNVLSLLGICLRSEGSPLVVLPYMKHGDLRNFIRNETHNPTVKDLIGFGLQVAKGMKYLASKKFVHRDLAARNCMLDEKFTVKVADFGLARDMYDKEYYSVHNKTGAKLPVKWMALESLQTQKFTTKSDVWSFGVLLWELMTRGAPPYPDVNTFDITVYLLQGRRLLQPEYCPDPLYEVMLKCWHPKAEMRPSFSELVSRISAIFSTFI

Regarding `CC(C)n1cc(C(=O)Nc2ccc(Oc3ccnc4[nH]ccc34)c(F)c2)c(=O)n(-c2ccc(F)cc2)c1=O` [No. 41, N-(4-((1H-pyrrolo[2,3-b]pyridin-4-yl)oxy)-3-fluorophenyl)-3-(4-fluorophenyl)-1-isopropyl-2,4-dioxo-1,2,3,4-tetrahydropyrimidin-5-carboxamide], the pIC50 in assay [1] is above 8.00; in assay [2], above 8.00; in assay [3] it was above 7.00; in assay [4] it was above 8.00.
Consider `CC(C)n1cc(C(=O)Nc2ccc(Oc3ccnc4c3CC(=O)N4)c(F)c2)c(=O)n(-c2ccc(F)cc2)c1=O` [No. 45, N-(3-fluoro-4-((2-oxo-2,3-dihydro-1H-pyrrolo[2,3-b]pyridin-4-yl)oxyl)phenyl)-3-(4-fluorophenyl)-1-isopropyl-2,4-dioxo-1,2,3,4-tetrahydropyrimidin-5-carboxamide], for which the pIC50 in assay [1] was 7.00 to 8.00; in assay [2] it was below 7.00.
For `CC(C)n1cc(C(=O)Nc2ccc(Oc3ccnc4c3OCCN4)cc2)c(=O)n(-c2ccc(F)cc2)c1=O` [No. 48, N-(4-((3,4-dihydro-2H-pyridino[3,2-b][1,4]oxazin-8-yl)oxy)phenyl)-3-(4-fluorophenyl)-1-isopropyl-2,4-dioxo-1,2,3,4-tetrahydropyrimidin-5-carboxamide], the pIC50 in assay [1] is above 8.00; in assay [2], 7.00 to 8.00.
`CC(C)n1cc(C(=O)Nc2ccc(Oc3cc4cnn(C)c4cc3-c3cn[nH]c3)c(F)c2)c(=O)n(-c2ccc(F)cc2)c1=O` [No. 50, N-(3-fluoro-4-((1-methyl-6-(1H-pyrazol-4-yl)-1H-indazol-5-yl)oxy)phenyl)-3-(4-fluorophenyl)-1-isopropyl-2,4-dioxo-1,2,3,4-tetrahydropyrimidin-5-carboxamide]: the pIC50 in assay [1] is above 8.00; in assay [2] it was 7.00 to 8.00; in assay [3] it was above 7.00; in assay [4], above 8.00.
In the case of `CC(C)n1cc(C(=O)Nc2ccc(Oc3ccnc4c3CCN4)c(F)c2)c(=O)n(-c2ccc(F)cc2)c1=O` [No. 51, N-(4-((2,3-dihydro-1H-pyrrolo[2,3-b]pyridin-4-yl)oxy)-3-fluorophenyl)-3-(4-fluorophenyl)-1-isopropyl-2,4-dioxo-1,2,3,4-tetrahydropyrimidin-5-carboxamide], the pIC50 in assay [1] and in assay [2] was above 8.00 each time.
For the compound `COCCCn1cc(C(=O)Nc2ccc(Oc3ccnc(-c4cnn(C)c4)c3)c(F)c2)c(=O)n(-c2ccc(F)cc2)c1=O` [No. 55, N-(3-fluoro-4-((2-(1-methyl-1H-pyrazol-4-yl)pyridin-4-yl)oxy)phenyl)-3-(4-fluorophenyl)-1-(3-methoxypropyl)-2,4-dioxo-1,2,3,4-tetrahydropyrimidin-5-carboxamide], the pIC50 in assay [1] and in assay [2] was 7.00 to 8.00 in each case.
